In US20080038321A1, “PROPHYLACTIC/THERAPEUTIC COMPOSITIONS FOR LIVER DISEASES” (Ajinomoto Co., Inc., priority 2004, published 2008):

Assays:
TRB3 [1] = assay: Suppressive effects of amino acids on TRB3 expression in cultured hepatocytes (Fao cells, quantitative PCR); format: cell-based, rat; settings: 3 h, minus amino acid medium plus one L-amino acid 1 mM (or standard medium), mRNA, minus amino acid medium = 1.00, n = 4, mean ± SD
Procedure: Suppressive effects of twenty-two amino acids on TRB3 expression in rat hepatic cancer-derived Fao cells were examined.
The standard medium is a medium corresponding to the minus amino acid medium, except for further containing amino acids listed in Table 2.
RNAs were extracted from the cultured cells, the expression levels of TRB3 gene were determined through quantitative polymerase chain reaction (PCR), and the suppressive effects of amino acids on TRB3 expression were determined and compared with data of TRB3 expression induced upon amino acid starvation. The gene expression was corrected with reference to β-actin expression level. The correction was carried out in the same manner in the after-mentioned genes.
The data were corrected and expressed while taking the average of TRB3 mRNA levels after three-hour cultivation in the minus amino acid medium as 1.00.

[2] = tested on: glucose-6-phosphatase (G6Pase); assay: Effect of L-Asp on G6Pase expression suppressive action of insulin in Fao cells (quantitative PCR); format: cell-based, rat; settings: for G6Pase expression level: 6 h, -Asp RPMI without insulin = 1.00; for G6Pase expression level (value in parentheses): -Asp RPMI at same insulin concentration = 1.00
Procedure: To verify whether an amino acid showing a TRB3 expression suppressive action actually increases the insulin action on hepatocytes, how L-Asp acts on glucose-6-phosphatase (G6Pase) expression suppressive action of insulin in rat hepatic cancer-derived Fao cells was studied.
Fao cells were inoculated on a 24-well plate and cultured overnight. Thereafter, 0, 0.3, and 1.0 mM L-Asp and 0, 10^−10, 10^−8, and 10^−6 M insulin were added respectively to a basal medium corresponding to RPMI 1640 medium containing no glucose but 0.1% BSA, except with L-Asp being removed therefrom, and the cells were further cultivated for six hours. RNAs were extracted from the cultured cells, and the expression levels of G6Pase were determined through quantitative PCR.
The G6Pase expression level in −Asp RPMI medium added with no insulin is defined as 1.00.
The values in the parentheses are values while defining the G6Pase expression levels in −Asp RPMI medium at respective insulin concentrations as 1.00, respectively.

GK rats = assay: Long-term L-Asp in diet to GK rats: fasting blood glucose and insulin; format: in vivo, rat; settings: 3% L-Asp-containing diet (3AS), 6 weeks, n = 5, mean ± SD
Procedure: (§3) Specifically, L-Asp as mixed in a diet was administered to GK rats over a long time, and the effect of the administration on gene expression in the liver and disease state was determined.
(§4) Male 6-week-old GK rats were purchased, pre-fed for one week, grouped into the following groups each including five rats, the diet was replaced with experimental diets, and the rats were fed with the experimental diets for eight weeks.
CON group: administered with a control diet
3AS group: administered with a 3% L-Asp-containing diet
6AS group: administered with a 6% L-Asp-containing diet
The fasting blood glucose level is generally considered to be an index reflecting the basal insulin secretion and the insulin resistance.

G6Pase [3] = assay: Liver gene expression in GK rats after 8 weeks L-Asp diet (quantitative PCR): G6Pase; format: in vivo, rat; settings: 3% L-Asp diet (3AS), CON group = 1.00
Procedure: as §3, §4
On week eight of administration, the liver was extirpated after eighteen-hour fasting, RNAs were extracted, and the gene expressions were determined through quantitative PCR and compared.

[4] = tested on: stearoyl-Coenzyme A desaturase 1 (SCD1) gene; assay: Liver gene expression profiling in GK rats (Gene Chip Rat Genome U34A Array): SCD1; format: in vivo; settings: 8 weeks, CON group = 1.00
Procedure: Gene expression profiling was conducted using samples containing equivalent amounts of genes in the liver of individuals in the individual groups. The gene expression profiling was carried out with the Gene Chip Rat Genome U34A Array (Affymetrix Inc.). […] This is because the two genes relate to steatogenesis.
The mRNA levels are expressed while defining the level in the CON group as 1.00.

TRB3 [5] = assay: Liver gene expression in high-fat diet GK rats after 6-week administration (quantitative PCR): TRB3; format: in vivo, rat
Text: (§1) The mRNA levels are expressed while defining the level in the SD group as 1.00. <Primer Sequence>

G6Pase [6] = assay: Liver gene expression in high-fat diet GK rats after 6-week administration (quantitative PCR): G6Pase; format: in vivo, rat
Text: as §1

PPAR-alpha = assay: Liver gene expression in high-fat diet GK rats after 6-week administration (quantitative PCR): PPAR-alpha; format: in vivo, rat
Text: as §1

ACO = assay: Liver gene expression in high-fat diet GK rats after 6-week administration (quantitative PCR): ACO; format: in vivo, rat
Text: as §1

CPT-1 = assay: Liver gene expression in high-fat diet GK rats after 6-week administration (quantitative PCR): CPT-1; format: in vivo, rat
Text: as §1

TRB3 [7] = assay: TRB3 mRNA in Fao cells with L-Asp, L-Ala or both (quantitative PCR); format: cell-based, rat; settings: 3 h, L-Asp 0.05 mM, L-Ala 0.03 mM or both
Procedure: (§2) Whether the suppressive effect of L-Asp on TRB3 expression in rat hepatocyte-derived Fao cells is increased by adding L-Ala as another amino acid was studied. Whether the expression of HNF-4α is increased was also studied. Fao cells were inoculated on a 24-well plate to an amount of 2×10^5 cells/well, and the cells were cultivated in a 10% fetal bovine serum-containing RPMI 1640 medium (supplied from Nacalai Tesque, Inc.; Code No. 30264-85) at 37° C. in an atmosphere of 5% CO2 overnight. On the following day, the medium was replaced with one of a 10% fetal bovine serum-containing RPMI medium from which all amino acids had been removed (minus amino acid medium; Table 1) and media corresponding to the minus amino acid medium, except with L-Asp (concentration: 0.05 mM), L-Ala (concentration: 0.03 mM), or both added, and the cells were further cultivated at 37° C. in 2.5% CO2 atmosphere for three hours. RNAs were extracted from the cultured cells, and the TRB3 mRNA levels and the HNF-4α mRNA levels were determined through quantitative polymerase chain reaction (PCR) (Table 10).

HNF-4α = HNF-4α mRNA in Fao cells with L-Asp, L-Ala or both (quantitative PCR); format: cell-based, rat; settings: 3 h, L-Asp 0.05 mM, L-Ala 0.03 mM or both
Procedure: as §2

[8] = tested on: Wistar rats fed with high-fat diets; assay: Wistar rats fed with high-fat diets: body weight and liver triglyceride; format: in vivo, rat
Text: Pharmacological actions of L-Asp were identified using Wistar rats fed with high-fat diets.
These triglyceride contents were converted into total triglyceride contents in the entire liver.

TRB3 [9] = assay: Suppressive effects of amino acids on TRB3 expression in cultured hepatocytes (Fao cells, quantitative PCR); format: cell-based, rat; settings: other experiments; 0.03 mM to 0.3 mM
[10] = HFD + Asp, HFD = 1.00 in table, n = 6, mean
[11] = HFD + Asp, 6-week administration, HFD = 1.00 in table, n = 6, mean
[12] = L-Asp administration, 6 weeks, HFD

With `N[C@@H](CC(=O)O)C(=O)O` [L-Asp, L-aspartic acid] the TRB3 expression level (TRB3 [1]) was 0.724 ± 0.13, the TRB3 expression level (TRB3 [1]; listed as aspartic acid) was “significantly suppressed TRB3 expression” and the G6Pase expression level ([2]; 0.3 mM Asp, insulin 0 M) was 0.603. For the same compound, the “G6Pase expression level (value in parentheses)” value ([2]; 0.3 mM Asp, insulin 0 M) was 0.60, the G6Pase expression level ([2]; 0.3 mM Asp, insulin 10^-6 M) was 0.014 and the “G6Pase expression level (value in parentheses)” value ([2]; 0.3 mM Asp, insulin 10^-6 M) was 0.60. The G6Pase expression level ([2]; 0.3 mM Asp, insulin 10^-8 M) was 0.022, the “G6Pase expression level (value in parentheses)” value ([2]; 0.3 mM Asp, insulin 10^-8 M) was 0.70 and the G6Pase expression level ([2]; 0.3 mM Asp, insulin 10^-10 M) was 0.100. For the same compound, the “G6Pase expression level (value in parentheses)” value ([2]; 0.3 mM Asp, insulin 10^-10 M) was 0.67, the G6Pase expression level ([2]; 1 mM Asp, insulin 0 M) was 0.397 and the “G6Pase expression level (value in parentheses)” value ([2]; 1 mM Asp, insulin 0 M) was 0.40. The G6Pase expression level ([2]; 1 mM Asp, insulin 10^-6 M) was 0.008, the “G6Pase expression level (value in parentheses)” value ([2]; 1 mM Asp, insulin 10^-6 M) was 0.36 and the G6Pase expression level ([2]; 1 mM Asp, insulin 10^-8 M) was 0.016. For the same compound, the “G6Pase expression level (value in parentheses)” value ([2]; 1 mM Asp, insulin 10^-8 M) was 0.52, the G6Pase expression level ([2]; 1 mM Asp, insulin 10^-10 M) was 0.076 and the “G6Pase expression level (value in parentheses)” value ([2]; 1 mM Asp, insulin 10^-10 M) was 0.51. The “G6Pase expression suppressive action” value ([2]; L-Asp alone, glucose starvation) was “G6Pase expression suppressive action even if used alone”, the G6Pase expression suppression ([2]; L-Asp in combination with insulin) was “increased G6Pase expression suppression when used in combination with insulin” and the “Fasting blood glucose level” value (GK rats) was 151 ± 4.8 mg/dL. The “G6Pase mRNA level in liver” value (G6Pase [3]) was 0.99 ± 0.15, the “SCD1 mRNA level in liver” value ([4]; 3% L-Asp diet (3AS)) was 0.78 and the “SCD1 mRNA level in liver” value ([4]; 6% L-Asp diet (6AS)) was 0.71. The “TRB3 mRNA level in liver” value (TRB3 [5]; [10]) was 0.58, the “TRB3 expression relative to HFD group” value (TRB3 [5]; HFD plus Asp group) was 0.58 time and the “G6Pase mRNA level in liver” value (G6Pase [6]; [10]) was 0.52. For the same compound, the “G6Pase expression relative to HFD group” value (G6Pase [6]; HFD plus Asp group) was 0.52 time, the “PPARα mRNA level in liver” value (PPAR-alpha; [11]) was 1.34 and the PPAR-alpha gene expression (PPAR-alpha; [12]) was 1.34 time. For the same compound, the “ACO mRNA level in liver” value (ACO; [11]) was 1.18, the ACO gene expression (ACO; [12]) was 1.18 time and the “CPT-1 mRNA level in liver” value (CPT-1; [11]) was 1.20. For the same compound, the CPT-1 gene expression (CPT-1; [12]) was 1.20 time, the “TRB3 mRNA level” value (TRB3 [7]; minus amino acid medium = 1.00) was 0.54 and the “expression level of TRB3 mRNA” value (TRB3 [7]; of minus amino acid medium) was 54%. For the same compound, the “expression level of HNF-4α mRNA” value (HNF-4α) was 1.3 time, the “HNF4α mRNA level” value (HNF-4α; minus amino acid medium = 1.00) was 1.30 and the Body weight ([8]; before administration (baseline), HFD plus about 6% L-Asp, n = 6) was 328 ± 9 g. The triglyceride content ([8]; four weeks, HFD plus Asp group, HFD group 57.6) was 43.4 mg per 1 g of the liver, the “total triglyceride content in the liver” value ([8]; four weeks, HFD plus Asp group, HFD group 1047.5) was 743.4 mg and the “Triglyceride content in liver” value ([8]; week 4, HFD plus about 6% L-Asp) was 43 ± 10 mg/g. For the same compound, the Body weight ([8]; week 4, HFD plus about 6% L-Asp, n = 6) was “tended to have a decreased body weight”, the Body weight ([8]; week 4, HFD plus about 6% L-Asp, n = 6, listed as Asp) was 474 ± 20 g and the “suppression of TRB3 expression” value (TRB3 [9]) was “significantly suppresses the TRB3 expression”.
